The target of experiment [1] is T1, Pc DHFR (Pneumocystis carinii, UniProt P16184).
T1 sequence (P16184 1-206): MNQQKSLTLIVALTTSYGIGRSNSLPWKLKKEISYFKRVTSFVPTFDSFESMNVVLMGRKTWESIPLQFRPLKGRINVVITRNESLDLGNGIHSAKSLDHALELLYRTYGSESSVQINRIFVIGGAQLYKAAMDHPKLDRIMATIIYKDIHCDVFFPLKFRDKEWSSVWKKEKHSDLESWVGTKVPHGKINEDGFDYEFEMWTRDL
Put plainly: biochemical.

The next experiment has as its target T2, RL DHFR (Rattus norvegicus, UniProt Q920D2).
T2 construct: Toxoplasmosis gondii (Tg) and rat liver (RL); from tissue; host or cells: rat liver
T2 sequence (Q920D2 1-187): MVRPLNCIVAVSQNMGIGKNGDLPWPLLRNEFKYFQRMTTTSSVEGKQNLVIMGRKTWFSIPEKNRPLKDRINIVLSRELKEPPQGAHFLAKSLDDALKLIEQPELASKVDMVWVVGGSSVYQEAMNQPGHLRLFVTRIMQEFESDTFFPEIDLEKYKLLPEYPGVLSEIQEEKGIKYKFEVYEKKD
Put plainly: Inhibition of DHFR from rat liver. The experiment is classed as biochemical. On the procedure: (§1) The selectivity ratio is a measure of the selectivity of a compound for Pc DHFR or Tg DHFR and is expressed as the IC50 value of the DHFR from rate liver (RL) divided by the IC50 value of either the Pc DHFR or the Tg DHFR, depending on which organism the compounds are being tested against. For example, the selectivity ratio of a compound is calculated by the following formula: [formula]

For experiment [2], the target named is T1, Pc DHFR. The experiment is classed as biochemical. To be noted: for Selectivity Ratio: RL DHFR/Pc DHFR: Table 7, IC50 RL DHFR divided by IC50 Pc DHFR; for Selectivity ratio rl/pc: IC50 rlDHFR/IC50 pcDHFR; for Selectivity Ratio RL/Pc: Table 16. On the procedure: as §1
The next experiment concerns the target T3, Tg DHFR (Toxoplasma gondii, UniProt Q07422).
T3 sequence (Q07422 1-610): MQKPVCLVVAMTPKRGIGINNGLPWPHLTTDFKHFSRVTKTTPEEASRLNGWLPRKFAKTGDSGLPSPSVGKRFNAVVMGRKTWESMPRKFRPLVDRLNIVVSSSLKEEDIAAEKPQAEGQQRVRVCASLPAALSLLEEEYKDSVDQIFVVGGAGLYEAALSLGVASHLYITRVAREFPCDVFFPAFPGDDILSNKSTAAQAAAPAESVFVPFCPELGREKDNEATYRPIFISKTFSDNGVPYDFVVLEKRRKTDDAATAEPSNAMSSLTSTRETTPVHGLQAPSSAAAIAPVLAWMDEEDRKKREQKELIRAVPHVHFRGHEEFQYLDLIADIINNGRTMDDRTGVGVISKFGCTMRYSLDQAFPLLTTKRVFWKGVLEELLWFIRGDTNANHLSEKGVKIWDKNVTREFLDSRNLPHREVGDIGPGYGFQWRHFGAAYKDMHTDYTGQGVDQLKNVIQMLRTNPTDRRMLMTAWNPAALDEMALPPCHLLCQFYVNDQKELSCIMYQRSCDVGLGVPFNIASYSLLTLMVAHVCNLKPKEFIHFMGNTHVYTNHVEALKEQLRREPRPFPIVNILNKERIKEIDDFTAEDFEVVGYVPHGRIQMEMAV
The experiment in a line: biochemical. Particulars: for Selectivity Ratio: RL DHFR/Tg: IC50 RL DHFR divided by IC50 Tg DHFR. The experiment is classed as biochemical. On the procedure:
as §1

In the next experiment the test system is FaDu. Put plainly: Growth inhibition of FaDu human squamous carcinoma cell line. The experiment is classed as cell-based.
A further experiment relates to R1 cells. The experiment in a line: Growth inhibition of R1 subline (increased DHFR). To be noted: Homo sapiens. It counts as cell-based.
For the next experiment, the system named is R2 cells. The experiment in a line: Growth inhibition of R2 subline (MTX-transport deficient). The experiment is classed as cell-based. To be noted: Homo sapiens.
The mark [3] stands for this setting: Table 7, read-out: Pc DHFR IC50.
[4] abbreviates: Table 7, read-out: RL DHFR IC50.
The mark [5] stands for this setting: Table 7, read-out: Tg DHFR IC50.
Setting [6] is: Table 15, continuous (120 hours) exposure, read-out: Growth inhibition EC50, FaDu.
Setting [7] is: Table 16, read-out: Pc DHFR IC50.
The mark [8] stands for this setting: Table 25, read-out: Inhibitor Concentrations (IC50) pcDHFR.
Setting [9] is: Table 25, read-out: Inhibitor Concentrations (IC50) rlDHFR.
[10] abbreviates: Table 16, read-out: Tg DHFR IC50.
[11] abbreviates: Table 25, read-out: Inhibitor Concentrations (IC50) tgDHFR.
[12] abbreviates: read-out: Growth inhibition EC50.

The text below walks through data of US6962920B2, “Pyrimidine derivatives and methods of making and using these derivatives” (Duquesne University of the Holy Ghost, priority 1992, dated 2005).

Where two headings read alike, the source gives them in different places.

In the case of `COc1ccc(NCc2c[nH]c3nc(N)nc(N)c23)cc1` [Compound 3, 2,4-diamino-5-[(4′-methoxyanilino)methyl]pyrrolo[2,3-d]pyrimidine], the values for the IC50 at Pc DHFR [1] (setting [3]), on RL DHFR (setting [4]) and on Tg DHFR (setting [5]) were 279 µM, 63 µM and 6 µM, respectively. Moreover, the “Selectivity Ratio: RL DHFR/Pc DHFR” value on Pc DHFR [2] came out at 0.23. Moreover, the “Selectivity Ratio: RL DHFR/Tg” value at Tg DHFR (Table 7) was determined as 10.5.
Regarding `COc1cc(NCc2c[nH]c3nc(N)nc(N)c23)cc(OC)c1OC` [Compound 1, 2,4-diamino-5-[(3′,4′,5′-trimethoxyanilino)methyl]pyrrolo[2,3-d]pyrimidine], the IC50 on Pc DHFR [1] (setting [3]) is above 23 µM; at RL DHFR (setting [4]) it was 56.3 µM; at Tg DHFR (setting [5]), 8.1 µM. The “Selectivity Ratio: RL DHFR/Pc DHFR” value at Pc DHFR [2] is listed as below 2.4. On Tg DHFR (Table 7), the “Selectivity Ratio: RL DHFR/Tg” value amounted to 7.0.
Regarding `CN(Cc1ccc(S(=O)(=O)N2CCOCC2)cc1)c1ccc2c3c(cccc13)C(=N)N2` [AG331], the EC50 with FaDu (setting [6]) was found to be 1 ± 0.1 µM.
For `Nc1nc(N)c2c(CNc3cc(Cl)ccc3Cl)coc2n1` [Compound 169, 2,4-Diamino-5-[(2′,5′-dichloroanilino)methyl]furo[2,3-d]pyrimidine], the IC50 came to 50.9 µM at Pc DHFR [1] (setting [7]), 50.9 µM on Pc DHFR [1] (setting [8]) and 71.9 µM at RL DHFR (setting [9]). Besides, at Pc DHFR [2], the Selectivity ratio rl/pc worked out at 1.4. Besides, the “Selectivity Ratio RL/Pc” value at Pc DHFR [2] was 1.4.
For `Nc1nc(N)c2c(COc3ccc4ccccc4c3)coc2n1` [Compound 164, 2,4-Diamino-5-[(2-naphthoxy)methyl]furo[2,3-d]pyrimidine], the IC50 at Pc DHFR [1] (setting [7]) was 14 µM; on Pc DHFR [1] (setting [8]) it was 14 µM; at RL DHFR (setting [9]) it was 60.3 µM; at Tg DHFR (setting [10]), above 42 µM; at Tg DHFR (setting [11]), above 42 µM. Moreover, the Selectivity ratio rl/pc at Pc DHFR [2] worked out at 4.31. Further, at Pc DHFR [2], the “Selectivity Ratio RL/Pc” value was found to be 4.31.
For `C#CCN(Cc1ccc2nc(N)[nH]c(=O)c2c1)c1ccc(C(=O)N[C@@H](CCC(=O)O)C(=O)O)cc1` [PDDF], the EC50 with FaDu (setting [6]) worked out at 1.7 ± 0.2 µM.
Turning to `CN(Cc1cnc2nc(N)nc(N)c2n1)c1ccc(C(=O)N[C@@H](CCC(=O)O)C(=O)O)cc1` [MTX, methotrexate, reference compound], the EC50 in the experiment with R1 cells (setting [12]) came out at 0.675 ± 0.035 µM; with R1 cells (read-out: Growth inhibition EC50, R1) it was 0.595 ± 0.005 µM; in the experiment with R1 cells (read-out: Growth inhibition EC50, R1 (↑ DHFR)), 6.445 ± 0.055 µM; in the experiment with FaDu (Homo sapiens, FaDu, 120 h, read-out: Growth inhibition EC50, FaDu) it was 0.031 ± 0.002 µM; in the experiment on FaDu (Homo sapiens, FaDu, read-out: Growth inhibition EC50), 0.0113 ± 0.0018 µM; with FaDu (Homo sapiens, FaDu, read-out: Growth inhibition EC50, FaDu) it was 0.017 ± 0.002 µM. Moreover, the concentration giving a half-maximal response (EC50) in the experiment on R2 cells (setting [12]) worked out at 1.6 ± 0.1 µM; in the experiment on R2 cells (read-out: Growth inhibition EC50, R2), 3.1 ± 0.1 µM; in the experiment on R2 cells (read-out: Growth inhibition EC50, R2 (↓ transport)) it was 2.35 ± 0.55 µM.
As for `Nc1nc(N)c2c(CNc3ccc4ccccc4c3)coc2n1` [Compound 163, 2-4-Diamino-5-[(2-naphthylamino)methyl]furo[2,3-d]pyrimidine], the IC50 was 41 µM at Pc DHFR [1] (setting [7]); 41 µM on Pc DHFR [1] (setting [8]); 36.5 µM at RL DHFR (Table 16, read-out: RL DHFR IC50); 36.5 µM on RL DHFR (setting [9]); 38 µM at Tg DHFR (setting [10]); 38 µM at Tg DHFR (setting [11]). The Selectivity ratio rl/pc on Pc DHFR [2] turned out to be 0.89. Besides, the “Selectivity Ratio RL/Pc” value on Pc DHFR [2] is 0.89. The Selectivity ratio rl/tg on Tg DHFR (IC50 rlDHFR/IC50 tgDHFR) is reported as 0.96. For the same molecule, the “Selectivity Ratio RL/Tg” value at Tg DHFR (Table 16) is listed as 0.96.
